The source of these data is article PMC12326981, “Novel C5α-substituted carbapenems enhance Mycobacterium abscessus killing via selective target binding and reduced hydrolysis by BlaMab” (Antimicrobial Agents and Chemotherapy, 2025).

The subject of data set [1] is Mab ATCC 19977. In words: MIC testing against Mab ATCC 19977, single agent and combinations. The format is cell-based, Mycobacterium abscessus. The procedure:
MICs were determined in duplicate following Clinical Laboratory Standards Institute ([52]) guidelines using Middlebrook 7H9 broth supplemented with 10% (vol/vol) oleic acid-albumin-dextrose-catalase (OADC) and 0.05% (vol/vol) Tween 80, with an inoculum of 5 × 10⁵ CFU/mL. MIC testing of two C5α-substituted carbapenems was conducted both individually and in combination with cephalosporins (cefuroxime and ceftaroline), penicillins (amoxicillin), or BLIs (avibactam or durlobactam + sulbactam). Avibactam, durlobactam, cefuroxime, ceftaroline, and amoxicillin were fixed at concentrations of 4, 1, 2, 4, and 4 mg/L, respectively. […] The MIC was defined as the lowest antibiotic concentration that inhibited visible bacterial growth following 48 h of incubation at 30°C.

Data set [2] concerns Mab strain ATCC 19977 and three clinical isolates (Mab122, Mab686, and UH01). Kind of data set: Static concentration time-kill (SCTK) assay. The format is cell-based, Mycobacterium abscessus. To be noted: imipenem alone (Fig. S1). How it is done: SCTK studies were conducted over 5 days in Middlebrook 7H9 broth supplemented with 10% (vol/vol) OADC, 0.2% (vol/vol) glycerol, and 0.05% (vol/vol) Tween 80 in duplicate. The efficacy of JDB/NA-1-157 and JDB/NA-208 was evaluated using Mab strain ATCC 19977 and three clinical isolates (Mab122, Mab686, and UH01) at an initial inoculum of 10^5.5–10^6.3 CFU/mL. […] Bacterial killing was assessed across a wide range of concentrations for JDB/NA-1-157 and JDB/NA-1-208 individually (0.0625–64.0 mg/L).
For the combination study, the concentrations of JDB/NA-1-157 and JDB/NA-1-208 were selected based on MIC results and time-killing profiles of the single-drug study, while the concentrations of other β-lactams and BLIs were chosen based on clinically relevant levels, determined from the predicted average unbound steady-state concentrations (fCss,avg) in plasma at clinically relevant doses ([27]). The drug concentrations used were JDB/NA-1-157, 1 mg/L; JDB/NA-1-208, 8 mg/L; imipenem, 12 mg/L; ceftaroline, 8 mg/L; cefuroxime, 8 mg/L; amoxicillin, 2 mg/L; avibactam, 4 mg/L; durlobactam, 12 mg/L; amikacin, 12 mg/L; clarithromycin, 0.3 mg/L; and cefoxitin, 7 mg/L. The SOC regimen was included for comparison of efficacy. On day 3, the broth was replaced with fresh broth containing the corresponding drug concentrations. For viable cell counts, 100 µL of undiluted or appropriately diluted samples was subcultured on Middlebrook 7H10 agar plates supplemented with 1% (vol/vol) OADC, 0.2% glycerol, and 0.05% (vol/vol) Tween 80. All samples were washed twice with sterile 0.9% saline prior to serial dilution or plating.

Data set [3] has as its system Mab ATCC 19977. In words: MIC testing with drugs pre-incubated in 7H9 broth (effect of drug instability). The format is cell-based, Mycobacterium abscessus. To be noted: for MIC: Mycobacteroides abscessus, ATCC19977. The procedure:
MICs were determined in duplicate following Clinical Laboratory Standards Institute ([52]) guidelines using Middlebrook 7H9 broth supplemented with 10% (vol/vol) oleic acid-albumin-dextrose-catalase (OADC) and 0.05% (vol/vol) Tween 80, with an inoculum of 5 × 10⁵ CFU/mL. MIC testing of two C5α-substituted carbapenems was conducted both individually and in combination with cephalosporins (cefuroxime and ceftaroline), penicillins (amoxicillin), or BLIs (avibactam or durlobactam + sulbactam). Avibactam, durlobactam, cefuroxime, ceftaroline, and amoxicillin were fixed at concentrations of 4, 1, 2, 4, and 4 mg/L, respectively. Amoxicillin was combined with 4 mg/L avibactam, as it is highly susceptible to hydrolysis by BlaMab ([12], [15], [25]). The MIC was defined as the lowest antibiotic concentration that inhibited visible bacterial growth following 48 h of incubation at 30°C.

A further data set deals with T1, PBP-lipo (Mycobacteroides abscessus, UniProt B1MDC3).
T1 construct: made in house; host or cells: Escherichia coli BL21 (DE3)
T1 sequence (B1MDC3 entry or part of it): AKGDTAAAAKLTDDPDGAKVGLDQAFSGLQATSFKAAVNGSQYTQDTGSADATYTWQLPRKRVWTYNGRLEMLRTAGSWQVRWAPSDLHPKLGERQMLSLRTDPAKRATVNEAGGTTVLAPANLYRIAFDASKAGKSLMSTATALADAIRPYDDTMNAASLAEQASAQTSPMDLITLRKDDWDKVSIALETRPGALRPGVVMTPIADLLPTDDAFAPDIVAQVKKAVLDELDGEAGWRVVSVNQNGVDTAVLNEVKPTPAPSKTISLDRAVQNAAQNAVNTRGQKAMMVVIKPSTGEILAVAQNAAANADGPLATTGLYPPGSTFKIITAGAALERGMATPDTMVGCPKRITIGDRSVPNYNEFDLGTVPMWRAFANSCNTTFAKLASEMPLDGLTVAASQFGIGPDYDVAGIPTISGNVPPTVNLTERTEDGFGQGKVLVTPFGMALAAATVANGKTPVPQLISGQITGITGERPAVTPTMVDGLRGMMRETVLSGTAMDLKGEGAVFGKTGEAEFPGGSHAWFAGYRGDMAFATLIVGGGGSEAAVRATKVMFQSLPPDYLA
In words: Apparent inhibition constant (nitrocefin, Dixon plot). The settings on record: Ki,app. The format is biochemical. The procedure: (§1) Steady-state kinetic studies with JDB/NA-1-157 and JDB/NA-1-208 were performed using purified LDTs and PBPs, including LDT1–5, PBP-B, PBP-lipo, and D,D-carboxypeptidase. The assays were conducted on a BioTek Synergy2 multimode reader equipped with Gen5 software. To determine the Michaelis constant (Km^NCF) for each LDT and PBP, a wide range of NCF concentrations was tested, while the enzyme concentrations were fixed. Absorbance changes at 482 nm were monitored over 10 min. Steady-state kinetic parameters (Vmax and Km) were derived by fitting the experimental data to the Henri–Michaelis–Menten equation using nonlinear least-squares regression in GraphPad Prism version 9. The reaction velocity (v) at a given substrate concentration ([S]) was calculated using equation 2: […]
(§2) The apparent inhibition constants (Ki,app) for JDB/NA-1-157 and JDB/NA-1-208 were determined under the following conditions: an NCF concentration of 5 × Km, fixed concentrations of LDT or PBP enzymes, and varying concentrations of JDB/NA-1-157 and JDB/NA-1-208. Absorbance changes at 482 nm were monitored over a 30 min period for each inhibitor concentration. The data were linearized using a Dixon plot, which involves plotting the reciprocal of the absorbance change (1/ΔA) against the concentrations of JDB/NA-1-157 or JDB/NA-1-208. Apparent Ki,app values were derived from the intersection points on the Dixon plot and were subsequently corrected for substrate concentration and enzyme affinity using equation 3:
(§3) (3) Ki,app=observed Ki,app/1+[NCF]/Km NCF.

The target in another data set is PBP B (Mycobacteroides abscessus, UniProt B1MP31). Described as above. To be noted: read-out: Ki,app (converted). The format is biochemical. How it is done: as §1, §2, §3
Sequence of PBP B (B1MP31 entry or part of it): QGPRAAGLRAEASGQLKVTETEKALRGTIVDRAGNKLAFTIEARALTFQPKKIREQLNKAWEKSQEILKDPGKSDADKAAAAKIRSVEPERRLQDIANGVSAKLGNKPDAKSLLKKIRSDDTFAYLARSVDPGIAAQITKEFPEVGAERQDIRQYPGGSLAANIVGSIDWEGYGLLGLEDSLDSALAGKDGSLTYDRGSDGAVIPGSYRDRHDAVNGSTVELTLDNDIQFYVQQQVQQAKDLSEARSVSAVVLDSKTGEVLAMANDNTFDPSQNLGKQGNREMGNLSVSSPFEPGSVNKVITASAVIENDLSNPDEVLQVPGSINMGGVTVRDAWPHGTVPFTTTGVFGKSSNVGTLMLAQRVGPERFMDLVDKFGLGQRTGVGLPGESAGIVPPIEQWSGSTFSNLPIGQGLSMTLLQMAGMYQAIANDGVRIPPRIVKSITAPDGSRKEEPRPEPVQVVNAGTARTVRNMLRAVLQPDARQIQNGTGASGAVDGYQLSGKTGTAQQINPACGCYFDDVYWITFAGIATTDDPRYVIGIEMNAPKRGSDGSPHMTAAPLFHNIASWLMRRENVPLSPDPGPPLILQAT
The target in a further data set is PonA2 (Mycobacteroides abscessus, UniProt B1MFV7). The data set is described as above. The format is biochemical, Mycobacterium abscessus. To be noted: Ki,app. How it is done:
as §1, §2, §3

Another data set concerns the target LDT5 (Mycobacteroides abscessus, UniProt B1MHQ4). The data set is described as above. It counts as biochemical, Mycobacterium abscessus. The settings on record: read-out: Ki,app. The procedure: as §1, §2, §3
A short description of data set [4]: Thermal stability in 7H9 broth at 30°C. The settings on record: for Degradation percentage: 24 h. The procedure: The stability of the two compounds in 7H9 broth was assessed at 30°C at drug concentrations of 10, 50, and 100 mg/L, with each condition tested in triplicate. Absorbance at 240 nm was measured every 2 h over a 24 h period using a BioTek Synergy2 multimode reader, with data analyzed via Gen5 software to monitor degradation or changes in stability. To evaluate the impact of thermal instability, MIC tests were performed using Mab ATCC 19977. Compounds were tested at time points of 0 h (no incubation) and 6, 24, and 48 h of incubation at 30°C. Imipenem and meropenem, known to be thermally unstable β-lactams, were included as positive controls. The MIC results were recorded after 48 h of incubation. Detailed MIC testing protocols were identical to those described below.

In another data set the target is LDT1 (Mycobacteroides abscessus, UniProt B1MDC1). Kind of data set: Apparent inhibition constant (nitrocefin, Dixon plot). The settings on record: Ki,app. The format is biochemical, Mycobacterium abscessus. The procedure:
as §1, §2, §3

A further data set has as its target LDT2 (Mycobacteroides abscessus, UniProt B1MMQ4). The data set is described as above. It counts as biochemical, Mycobacterium abscessus. The settings on record: Ki,app. The procedure: as §1, §2, §3
The subject of data set [5] is C[C@@H](O)[C@H]1C(=O)N2C(C(=O)O)=C(S[C@@H]3CN[C@H](C(=O)N(C)C)C3)C[C@]12C. Kind of data set: Steady-state kinetics of hydrolysis by BlaMab. It counts as biochemical, Mycobacterium abscessus. The settings on record: other: best-fit value (95% confidence interval), MES buffer pH 6.4, room temperature.
Where [6] appears, read: Mycobacteroides abscessus, ATCC19977, 48 h, alone (single agent), read-out: MIC.
[7] abbreviates: drug incubated 6 h in 7H9 broth at 30°C.
Setting [8] is: drug incubated 24 h in 7H9 broth at 30°C.
Where [9] appears, read: drug incubated 48 h in 7H9 broth at 30°C.

Some results are limits rather than exact numbers.

Sequence of PonA2 (B1MFV7 entry or part of it): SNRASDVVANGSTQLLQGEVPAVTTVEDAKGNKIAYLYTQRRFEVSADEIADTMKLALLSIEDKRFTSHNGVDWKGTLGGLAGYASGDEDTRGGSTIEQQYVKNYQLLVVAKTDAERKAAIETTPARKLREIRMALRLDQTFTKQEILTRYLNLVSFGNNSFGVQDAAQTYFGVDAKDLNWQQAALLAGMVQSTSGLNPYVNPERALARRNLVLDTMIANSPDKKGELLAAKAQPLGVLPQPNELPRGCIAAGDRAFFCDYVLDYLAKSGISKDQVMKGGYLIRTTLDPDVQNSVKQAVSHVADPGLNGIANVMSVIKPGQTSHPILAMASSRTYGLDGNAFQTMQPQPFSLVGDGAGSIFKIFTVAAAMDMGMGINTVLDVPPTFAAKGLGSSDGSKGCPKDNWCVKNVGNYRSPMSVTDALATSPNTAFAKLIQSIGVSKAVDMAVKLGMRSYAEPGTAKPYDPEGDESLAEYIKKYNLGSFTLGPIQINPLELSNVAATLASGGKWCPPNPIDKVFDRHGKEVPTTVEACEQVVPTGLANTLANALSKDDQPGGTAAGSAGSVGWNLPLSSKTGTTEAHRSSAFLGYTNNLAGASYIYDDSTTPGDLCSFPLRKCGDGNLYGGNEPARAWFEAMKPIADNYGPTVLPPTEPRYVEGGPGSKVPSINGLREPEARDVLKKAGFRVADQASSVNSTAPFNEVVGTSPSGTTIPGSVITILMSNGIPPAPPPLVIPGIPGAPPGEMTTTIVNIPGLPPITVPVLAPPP
Sequence of LDT5 (B1MHQ4 entry or part of it): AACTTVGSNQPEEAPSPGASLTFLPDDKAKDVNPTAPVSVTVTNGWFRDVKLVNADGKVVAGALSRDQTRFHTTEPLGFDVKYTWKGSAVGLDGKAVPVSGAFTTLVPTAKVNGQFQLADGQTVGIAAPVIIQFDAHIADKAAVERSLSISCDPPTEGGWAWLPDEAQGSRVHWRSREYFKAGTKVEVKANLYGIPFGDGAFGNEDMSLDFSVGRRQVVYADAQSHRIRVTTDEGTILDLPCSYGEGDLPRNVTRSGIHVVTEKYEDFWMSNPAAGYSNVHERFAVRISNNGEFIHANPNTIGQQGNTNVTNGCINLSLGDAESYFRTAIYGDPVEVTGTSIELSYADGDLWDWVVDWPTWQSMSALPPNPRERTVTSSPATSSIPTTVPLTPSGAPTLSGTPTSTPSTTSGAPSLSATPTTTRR
Sequence of LDT1 (B1MDC1 entry or part of it): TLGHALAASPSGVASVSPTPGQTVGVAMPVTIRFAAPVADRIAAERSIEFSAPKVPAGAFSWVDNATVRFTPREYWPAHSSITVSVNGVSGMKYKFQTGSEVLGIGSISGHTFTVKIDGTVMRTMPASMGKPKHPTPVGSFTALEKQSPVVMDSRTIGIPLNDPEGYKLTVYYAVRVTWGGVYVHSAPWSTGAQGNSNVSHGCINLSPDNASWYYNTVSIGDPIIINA
Sequence of LDT2 (B1MMQ4 entry or part of it): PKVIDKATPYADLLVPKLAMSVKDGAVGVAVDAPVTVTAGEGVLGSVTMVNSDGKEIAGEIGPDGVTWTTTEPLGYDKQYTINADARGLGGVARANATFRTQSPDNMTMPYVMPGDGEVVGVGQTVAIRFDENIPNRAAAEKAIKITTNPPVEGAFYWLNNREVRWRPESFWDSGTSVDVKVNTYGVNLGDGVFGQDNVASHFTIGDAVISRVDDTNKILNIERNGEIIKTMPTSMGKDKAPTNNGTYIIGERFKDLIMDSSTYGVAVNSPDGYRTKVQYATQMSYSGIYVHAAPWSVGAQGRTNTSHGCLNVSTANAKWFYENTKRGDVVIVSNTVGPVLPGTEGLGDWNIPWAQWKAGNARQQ

One may read the MIC as the smallest concentration in the dilution series that meets the test's criterion for growth inhibition. Turning to `CC1(C)S[C@@H]2[C@H](NC(=O)[C@H](N)c3ccc(O)cc3)C(=O)N2[C@H]1C(=O)O` [AMX, amoxicillin, reference compound], the MIC with Mab ATCC 19977 [1] (setting [6]) stood at 128 µg/mL; with Mab ATCC 19977 [1] (no carbapenem, with AVI), 32 µg/mL.
For the molecule `NC(=O)[C@@H]1CC[C@@H]2CN1C(=O)N2OS(=O)(=O)O` [AVI, avibactam, reference compound], the MIC in the data set on Mab ATCC 19977 [1] (setting [6]) was more than 128 µg/mL.
Same read-out and setting: next, `CCO/N=C(\C(=O)N[C@@H]1C(=O)N2C(C(=O)[O-])=C(Sc3nc(-c4cc[n+](C)cc4)cs3)CS[C@H]12)c1nsc(N)n1` [CFT, ceftaroline, reference compound]: 16 µg/mL; `CO/N=C(\C(=O)N[C@@H]1C(=O)N2C(C(=O)O)=C(COC(N)=O)CS[C@H]12)c1ccco1` [CXM, cefuroxime, reference compound]: 4 µg/mL.
Turning to `CC1=C[C@@H]2CN(C(=O)N2OS(=O)(=O)O)[C@@H]1C(N)=O` [DUR, durlobactam, reference compound], in the data set with Mab ATCC 19977 [1] (setting [6]), the MIC came out at 8 µg/mL.
The half-life is how long it takes for the measured level to halve. As to `C[C@@H](O)[C@H]1C(=O)N2C(C(=O)O)=C(SCCN=CN)C[C@H]12` [IPM, imipenem], the “log10 reduction in bacterial load” value in data set [2] was approximately 1.5 log10. Besides, the MIC in the data set with Mab ATCC 19977 [3] (setting [7]) was 1 µg/mL; in the data set on Mab ATCC 19977 [3] (setting [8]) it was 32 µg/mL; in the data set on Mab ATCC 19977 [3] (setting [9]), more than 64 µg/mL; in the data set on Mab ATCC 19977 [3] (no incubation of drug) it was 1 µg/mL. The “MIC fold increase after 24 h incubation” value in the data set on Mab ATCC 19977 [3] (drug incubated 24 h) stood at 32 fold. Besides, the “MIC fold increase after 48 h incubation” value in the data set with Mab ATCC 19977 [3] (drug incubated 48 h) is more than 64 fold. Besides, the Ki at PBP-lipo was 1.84 µM; at PBP B, 1.47 µM; on PonA2, 3.14 µM; on LDT5, 100 µM. Also, the “additional degradation by 24 h” value in data set [4] was “approximately 25%”. Besides, the “degradation within the first 6 h” value in data set [4] is “approximately 25%”. The half-life in data set [4] (7H9 broth) is 10 h. The Degradation percentage in [4] (10 mg/L) came out at 67.8%; in data set [4] (50 mg/L), 51.4%; in data set [4] (100 mg/L), 49.3%.
For the molecule `C[C@@H](O)[C@H]1C(=O)N2C(C(=O)O)=C(S[C@@H]3CN[C@H](C(=O)N(C)C)C3)[C@H](C)[C@H]12` [MEM, meropenem], the MIC in the data set with Mab ATCC 19977 [3] (setting [7]) was 4 µg/mL; with Mab ATCC 19977 [3] (setting [8]) it was 16 µg/mL; in the data set with Mab ATCC 19977 [3] (setting [9]), 16 µg/mL; in the data set on Mab ATCC 19977 [3] (no incubation of drug), 4 µg/mL. Besides, in the data set with Mab ATCC 19977 [3] (drug incubated 24 and 48 h), the “MIC rise after 24 and 48 h incubation vs nonincubated” value was “fourfold”. Besides, the Ki is 0.965 µM on PBP B, 0.206 µM at LDT1, 0.143 µM on PonA2 and 0.0313 µM at LDT2. The Degradation percentage is recorded as 11.7% in data set [4] (10 mg/L), 15.8% in data set [4] (50 mg/L) and 16.1% in [4] (100 mg/L).
One may read the kcat as the maximal rate divided by the concentration of active sites. Usually kcat/Km stands for the turnover number divided by the Michaelis constant. Turning to “BlaMab (Mycobacteroides abscessus ATCC 19977)”, in data set [5], the Km is recorded as 9.054 (3.677–17.50) µM, the catalytic constant (kcat) is 0.03 s⁻¹ and the catalytic efficiency (kcat/Km) turned out to be 3000 M⁻¹ s⁻¹.
